Experiments:
Renilla luciferase = biological target: T1, Renilla luciferase (Renilla reniformis, UniProt P27652); test: Protection of Renilla luciferase reaction from inhibition by isoliquirtigenin (ILT); format: biochemical; details: ILT 100 μM
T1 construct: purchased ChemiCon Chemicals
T1 sequence (P27652 1-311): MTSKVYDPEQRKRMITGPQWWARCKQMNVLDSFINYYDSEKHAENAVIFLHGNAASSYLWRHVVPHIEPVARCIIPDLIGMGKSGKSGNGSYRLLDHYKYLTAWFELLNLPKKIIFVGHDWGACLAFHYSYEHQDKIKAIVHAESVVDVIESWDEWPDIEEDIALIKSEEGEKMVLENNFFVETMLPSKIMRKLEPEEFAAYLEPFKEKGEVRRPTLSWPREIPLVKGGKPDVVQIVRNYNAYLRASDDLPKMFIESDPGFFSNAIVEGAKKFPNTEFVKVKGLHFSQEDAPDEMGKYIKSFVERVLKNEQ
Method: (§1) In this experiment, several tolerance enhancing agents were evaluated for their ability to protect luciferases from a known luciferase inhibitor, isoliquirtigenin (ILT) (100 μM, Sigma Chemical). ILT was added to luciferase reactions and the potential tolerance enhancing agents were evaluated for their ability to protect the luciferase from inhibition.
The basic Renilla luciferase reactions contained 100 mM Potassium Phosphate buffer (Sigma Chemical) at pH 7.4, 500 mM Sodium Chloride (Fisher Scientific), 1.0 mM EDTA (Sigma Chemical), 200 nM Coelenterazine (Promega Biosciences), 0.1% Gelatin (Sigma Chemical) and 0.12 nmol/ml Renilla luciferase (ChemiCon Chemicals).
(§2) ILT was solubilized at 100 mM in dimethyl sulfoxide (Sigma Chemical). ILT was diluted 1:1000 and the protectors were diluted into the reaction mix before the reaction was initiated by the addition of luciferase.
(§3) Reaction volume for each sample was 100 μl. Luminescence was integrated for 0.5 seconds per sample in a Turner Biosystems Veritas® luminometer immediately after luciferase was added to the reactions and the reactions were mixed. All measurements were done in triplicate.
(§4) The relative protection provided by each compound is calculated as difference between the luminescence generated in the presence and the absence of the protector divided by the total amount of inhibition as represented by the following equation: (L1−L2)/(L3−L4) wherein L1 represents luminescence with inhibitor and tolerance enhancing agent; L2 represents luminescence with inhibitor and no tolerance enhancing agent; L3 represents luminescence with no inhibitor and no tolerance enhancing agent; and L4 represents luminescence with inhibitor and no tolerance enhancing agent.
(§5) The relative protection in the presence of no tolerance enhancing agent, therefore, is 0% and in the absence of an inhibitor is 100%. The reactions used to generate luminescence in the absence of either inhibitor or tolerance enhancing agent still contained the solvent utilized to solubilize the inhibitor with which the reaction was to be compared.

[1] = biological target: T2, firefly luciferase (QuantiLum® luciferase) (Photinus pyralis, UniProt P08659); test: Protection of firefly luciferase reaction from inhibition by isoliquirtigenin (ILT); format: biochemical; details: ILT 100 μM
T2 construct: purchased Promega Corporation
Method: as §1
The basic firefly luciferase reactions contained 20 mM HEPES (Sigma Chemical) at pH 8.0, 6.4 mM Magnesium Sulfate (Fisher Scientific), 20 mM Dithiothreitol (City Chemical), 0.63 mM Coenzyme A (Pharmacia Biochemical), 0.4 mM EDTA (Sigma Chemical), 4.0 μM Luciferin (Promega Biosciences), 0.56 mM ATP (Pharmacia Biochemical), and 1.3×10^−6 mg/ml firefly luciferase (QuantiLum® luciferase, Promega Corporation).
as §2, §3, §4, §5

[2] = protector reaction concentration 0.10%
[3] = protector reaction concentration 0.02%

T2 sequence (P08659 whole entry): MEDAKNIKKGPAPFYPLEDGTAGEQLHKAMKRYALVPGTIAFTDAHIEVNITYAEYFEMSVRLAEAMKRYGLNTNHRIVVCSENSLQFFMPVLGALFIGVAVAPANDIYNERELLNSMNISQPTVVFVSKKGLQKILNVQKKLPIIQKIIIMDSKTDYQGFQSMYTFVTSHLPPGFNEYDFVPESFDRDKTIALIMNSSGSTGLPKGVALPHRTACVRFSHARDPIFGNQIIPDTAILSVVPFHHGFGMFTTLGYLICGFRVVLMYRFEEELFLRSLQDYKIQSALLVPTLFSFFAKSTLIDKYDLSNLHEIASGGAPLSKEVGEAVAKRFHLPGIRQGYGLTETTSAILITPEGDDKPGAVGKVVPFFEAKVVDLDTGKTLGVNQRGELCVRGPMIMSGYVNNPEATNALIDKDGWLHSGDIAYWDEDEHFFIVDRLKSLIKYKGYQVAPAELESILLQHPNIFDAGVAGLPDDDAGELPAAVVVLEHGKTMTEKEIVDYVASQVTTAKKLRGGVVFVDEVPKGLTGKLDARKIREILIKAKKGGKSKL

Molecule	Relative Protection Against ILT (Renilla luciferase; [2])	Relative Protection Against ILT [1, 3]	also measured
C[C@H](CCC(=O)NCCC[N+](C)(C)CCCS(=O)(=O)[O-])[C@H]1CC[C@H]2[C@@H]3[C@H](O)C[C@@H]4C[C@H](O)CC[C@]4(C)[C@H]3C[C@H](O)[C@]12C [CHAPS® detergent, 3-([3-Cholamidopropyl]dimethylammonio)-1-propanesulfonate]	14%	18%	Relative Protection Against ILT (Renilla luciferase; protector reaction concentration 0.50%): 97%; Relative Protection Against ILT [1, 2]: 57%
CCCCCCCCCCCCCCCC[N+](C)(C)C.[Br-] [CTAB, cetyltrimethylammonium]	95%	100%	
OC[C@H]1O[C@@](CO)(O[C@H]2O[C@H](CO)[C@@H](O)[C@H](O)[C@H]2O)[C@@H](O)[C@@H]1O [Sucrose]			Relative Protection Against ILT (Renilla luciferase; protector reaction concentration 0.10% (w:v)): 24%; Relative Protection Against ILT ([1]; protector reaction concentration 0.5% (w:v)): 32%
OC[C@H]1O[C@@H]2O[C@H]3[C@H](O)[C@@H](O)[C@@H](O[C@H]4[C@H](O)[C@@H](O)[C@@H](O[C@H]5[C@H](O)[C@@H](O)[C@@H](O[C@H]6[C@H](O)[C@@H](O)[C@@H](O[C@H]7[C@H](O)[C@@H](O)[C@@H](O[C@H]1[C@H](O)[C@H]2O)O[C@@H]7CO)O[C@@H]6CO)O[C@@H]5CO)O[C@@H]4CO)O[C@@H]3CO [α-Cyclodextrin, α-Cyclodextrin (Cyclohexaamylose)]			Relative Protection Against ILT (Renilla luciferase; protector reaction concentration 1.4 mM): 60%; Relative Protection Against ILT ([1]; protector reaction concentration 7 mM): 61%
Deoxycholate	72%	81%	
nonylphenol polyethylene glycol ether (C9H19C6H—(OCH2CH2)9OH) [Tergitol NP-9® detergent]	97%	88%	
